In ChEMBL document CHEMBL2176960, “Mechanism-based inactivation (MBI) of cytochrome P450 enzymes: structure-activity relationships and discovery strategies to mitigate drug-drug interaction risks” (J Med Chem, 2012):
Each block holds one compound with its values, some of them ahead of it.

Columns and labels:
CYP3A4 [1] = molecular target: T1, CYP3A4 (Homo sapiens, UniProt P08684); experiment: Inhibition of CYP3A4-mediated testosterone 6 beta hydroxylation in human liver microsome by Dixon plot analysis; format: ADME; conditions: liver microsomes, probe testosterone (6 beta-hydroxylation)
Cytochrome P450 3A4 [2] = molecular target: T2, Cytochrome P450 3A4 (Homo sapiens, UniProt P08684); experiment: Time dependent inhibition of CYP3A4-mediated testosterone-6-beta hydroxylation in human liver microsome; format: ADME
Homo sapiens [3] = species on record: Homo sapiens; experiment: Inhibition of CYP2B6 in human assessed as decrease of hydroxybupropion metabolite systemic exposure; format: ADME, organism-based; design: scale not given: the % may be the effect or the level left; conditions: in vivo
Homo sapiens [4] = species on record: Homo sapiens; experiment: Inhibition of CYP2B6 in human assessed as increase of bupropion systemic exposure; format: ADME, organism-based; design: scale not given: the % may be the effect or the level left; conditions: in vivo
CYP3A4 [5] = molecular target: T1, CYP3A4; experiment: (§1) Inhibition of CYP3A4 in human liver microsomes in presence of NADPH; format: ADME, Microsome; conditions: human, liver microsomes
Cytochrome P450 3A4 [6] = molecular target: T2, Cytochrome P450 3A4; experiment: as §1; format: ADME, Microsome
Cytochrome P450 2C8 [7] = molecular target: T3, Cytochrome P450 2C8 (Homo sapiens, UniProt P10632); experiment: (§2) Time dependent inhibition of CYP2C8 in human liver microsomes; format: ADME, Microsome
T3 sequence (P10632 whole entry): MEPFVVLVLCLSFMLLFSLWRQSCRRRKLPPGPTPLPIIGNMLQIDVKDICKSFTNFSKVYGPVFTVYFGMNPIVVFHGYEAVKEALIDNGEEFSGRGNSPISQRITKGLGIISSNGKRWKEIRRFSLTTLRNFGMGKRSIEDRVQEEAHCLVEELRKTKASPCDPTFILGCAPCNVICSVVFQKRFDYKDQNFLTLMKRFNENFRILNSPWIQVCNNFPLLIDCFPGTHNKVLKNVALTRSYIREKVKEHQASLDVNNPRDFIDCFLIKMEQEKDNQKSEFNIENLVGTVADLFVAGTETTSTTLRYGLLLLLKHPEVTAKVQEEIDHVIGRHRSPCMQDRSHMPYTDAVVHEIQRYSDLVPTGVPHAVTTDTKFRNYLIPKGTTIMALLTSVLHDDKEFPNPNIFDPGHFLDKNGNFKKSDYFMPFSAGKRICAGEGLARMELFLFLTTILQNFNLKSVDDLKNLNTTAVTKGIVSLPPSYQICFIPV

CYP2C8 = molecular target: T4, CYP2C8 (Homo sapiens, UniProt P10632); experiment: as §2; format: ADME, Microsome; conditions: human, liver microsomes
T4 sequence (P10632 whole entry): T3 sequence (P10632 whole entry)

Cytochrome P450 2C8 [8] = molecular target: T3, Cytochrome P450 2C8; experiment: Inhibition of CYP2C8; format: ADME
Cytochrome P450 2C8 [9] = molecular target: T3, Cytochrome P450 2C8; experiment: Inhibition of CYP2C8 in human liver microsomes in presence of NADPH; format: ADME, Microsome
CYP3A4 [10] = molecular target: T1, CYP3A4; experiment: (§3) Time dependent inhibition of CYP3A4; format: ADME
Cytochrome P450 3A4 [11] = molecular target: T2, Cytochrome P450 3A4; experiment: as §3; format: ADME
[12] = Clearance in human; format: ADME, organism-based; conditions: in vivo
[13] = Lipophilicity, log D of the compound; format: physicochemical; conditions: octanol/water
[14] = Oral bioavailability in human; format: ADME, organism-based; conditions: in vivo
Cytochrome P450 2C19 = Cytochrome P450 2C19 (Homo sapiens, UniProt P33261); experiment: (§4) Time dependent inhibition of CYP2C19
CYP2C19 = CYP2C19 (Homo sapiens, UniProt P33261); experiment: as §4
Cytochrome P450 2C8 [15] = molecular target: T3, Cytochrome P450 2C8; experiment: Reversible inhibition of CYP2C8 in human liver microsomes; format: ADME, Microsome
Cytochrome P450 2C9 = Cytochrome P450 2C9 (Homo sapiens, UniProt P11712); experiment: Reversible inhibition of CYP2C9 in human liver microsomes; format: ADME, Microsome
[16] = Half life in human; format: ADME, organism-based; conditions: in vivo
CYP3A4 [17] = molecular target: T1, CYP3A4; experiment: (§5) Time dependent inhibition of CYP3A4 in human liver microsomes; format: ADME, Microsome; conditions: human, liver microsomes
Cytochrome P450 3A4 [18] = molecular target: T2, Cytochrome P450 3A4; experiment: as §5; format: ADME, Microsome

T2 sequence (P08684 whole entry): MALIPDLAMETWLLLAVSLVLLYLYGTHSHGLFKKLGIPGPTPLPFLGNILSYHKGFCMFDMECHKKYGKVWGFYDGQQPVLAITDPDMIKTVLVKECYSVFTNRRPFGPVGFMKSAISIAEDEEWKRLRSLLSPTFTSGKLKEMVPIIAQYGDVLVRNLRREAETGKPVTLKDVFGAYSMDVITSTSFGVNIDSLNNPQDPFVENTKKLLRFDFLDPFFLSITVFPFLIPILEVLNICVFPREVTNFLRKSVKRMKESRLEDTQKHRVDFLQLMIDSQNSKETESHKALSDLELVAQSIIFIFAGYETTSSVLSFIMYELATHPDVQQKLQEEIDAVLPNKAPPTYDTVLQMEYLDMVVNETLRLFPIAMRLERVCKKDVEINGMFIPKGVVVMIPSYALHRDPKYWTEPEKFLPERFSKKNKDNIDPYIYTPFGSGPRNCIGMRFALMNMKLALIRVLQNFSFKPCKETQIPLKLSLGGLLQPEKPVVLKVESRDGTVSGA
T1 sequence (P08684 whole entry): as above
Sequence of CYP2C19 (P33261 whole entry): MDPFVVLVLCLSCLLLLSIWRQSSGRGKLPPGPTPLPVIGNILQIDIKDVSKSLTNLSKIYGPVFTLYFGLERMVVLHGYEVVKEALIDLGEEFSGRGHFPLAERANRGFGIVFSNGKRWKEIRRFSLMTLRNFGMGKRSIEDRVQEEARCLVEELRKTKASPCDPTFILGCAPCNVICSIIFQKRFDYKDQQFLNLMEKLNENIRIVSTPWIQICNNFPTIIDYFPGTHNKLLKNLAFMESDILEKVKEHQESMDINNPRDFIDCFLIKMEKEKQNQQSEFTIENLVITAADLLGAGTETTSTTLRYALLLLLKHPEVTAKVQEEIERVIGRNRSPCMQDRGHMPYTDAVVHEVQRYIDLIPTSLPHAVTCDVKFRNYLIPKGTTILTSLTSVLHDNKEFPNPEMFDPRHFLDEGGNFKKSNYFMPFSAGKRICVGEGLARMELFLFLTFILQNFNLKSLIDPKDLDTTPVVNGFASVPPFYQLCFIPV
Sequence of Cytochrome P450 2C19 (P33261 whole entry): as above
Sequence of Cytochrome P450 2C9 (P11712 whole entry): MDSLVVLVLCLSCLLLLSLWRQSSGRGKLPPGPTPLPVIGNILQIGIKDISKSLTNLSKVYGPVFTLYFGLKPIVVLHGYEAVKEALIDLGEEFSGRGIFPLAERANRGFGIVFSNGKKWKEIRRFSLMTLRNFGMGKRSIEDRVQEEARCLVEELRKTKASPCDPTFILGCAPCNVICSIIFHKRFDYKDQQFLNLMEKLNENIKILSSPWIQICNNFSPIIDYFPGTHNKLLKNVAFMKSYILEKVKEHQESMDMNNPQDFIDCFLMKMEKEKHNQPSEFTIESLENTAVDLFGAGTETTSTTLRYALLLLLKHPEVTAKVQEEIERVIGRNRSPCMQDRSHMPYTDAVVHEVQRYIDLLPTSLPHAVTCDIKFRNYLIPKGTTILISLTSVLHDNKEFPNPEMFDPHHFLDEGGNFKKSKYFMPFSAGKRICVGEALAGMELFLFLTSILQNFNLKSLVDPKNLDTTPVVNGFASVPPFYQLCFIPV

SMILES: COc1cc(CC(=O)O)ccc1Oc1ccc2[nH]c(C)cc2c1NS(=O)(=O)c1ccc(Cl)cc1Cl
- kinact (CYP3A4 [5]): 0.00267 s⁻¹
- Ki (Cytochrome P450 3A4 [6]): 18 µM

SMILES: Cc1ccc(C)c(OCCCC(C)(C)C(=O)O[C@@H]2O[C@H](C(=O)O)[C@@H](O)[C@H](O)[C@H]2O)c1
- Ki (Cytochrome P450 2C8 [7]): 20 µM
- kinact (CYP2C8): 0.0035 s⁻¹
- IC50 (Cytochrome P450 2C8 [8]): 4.1 µM
- IC50 (Cytochrome P450 2C8 [9]): 1.8 µM

SMILES: O=C1CCc2ccc(OCCCCN3CCN(c4cccc(Cl)c4Cl)CC3)cc2N1 [ARIPIPRAZOLE]
- clearance [12]: 0.8 mL/min/kg
- logD [13]: 5.54
- bioavailability [14]: 87%

SMILES: Cc1ccc(C)c(OCCCC(C)(C)C(=O)O)c1 [GEMFIBROZIL]
- IC50 (Cytochrome P450 2C8 [8]): 28 µM
- IC50 (Cytochrome P450 2C8 [15]): 95 µM
- IC50 (Cytochrome P450 2C9): 9.6 µM

SMILES: CCc1nn(CCCN2CCN(c3cccc(Cl)c3)CC2)c(=O)n1CCOc1ccccc1 [NEFAZODONE]
- logD [13]: 3.43
- half-life [16]: 1 h
- bioavailability [14]: 20%

SMILES: CN(c1ncccc1CNc1nc(Nc2ccc3c(c2)CC(=O)N3)ncc1C(F)(F)F)S(C)(=O)=O [PF-00562271]
- kinact (CYP3A4 [17]): 0.00383 s⁻¹
- Ki (Cytochrome P450 3A4 [18]): 12 µM

SMILES: O=c1n(CCCN2CCN(c3cccc(Cl)c3)CC2)nc2ccccn12 [TRAZODONE]
- logD [13]: 1.58

Second part, the compound after the results:

- kinact (CYP3A4 [1]): 0.00983 s⁻¹
- Ki (Cytochrome P450 3A4 [2]): 0.37 µM
SMILES: CC(C)CN(C[C@@H](O)[C@H](Cc1ccccc1)NC(=O)O[C@H]1CCOC1)S(=O)(=O)c1ccc(N)cc1

- Activity (Homo sapiens [3]): 23%
- Activity (Homo sapiens [4]): 18%
SMILES: CC(=O)Oc1cc2c(s1)CCN(C(C(=O)C1CC1)c1ccccc1F)C2 (stereo not given)

- kinact (CYP3A4 [10]): 0.00133 s⁻¹
- Ki (Cytochrome P450 3A4 [11]): 23 µM
SMILES: CC(C)(C)NC(=O)C1(C2CCCCC2)CCN(C(=O)[C@@H](Cc2ccc(Cl)cc2)NC(=O)[C@H]2CCc3ccccc3[C@H]2N)CC1

- Activity (Homo sapiens [3]): 52%
- Activity (Homo sapiens [4]): 60%
- Ki (Cytochrome P450 2C19): 14.3 µM
- kinact (CYP2C19): 0.000917 s⁻¹
SMILES: COC(=O)[C@H](c1ccccc1Cl)N1CCc2sccc2C1 [CLOPIDOGREL]

- Activity (Homo sapiens [3]): 84%
- Activity (Homo sapiens [4]): 85%
SMILES: Clc1ccccc1CN1CCc2sccc2C1 [TICLOPIDINE]
